Measured values as given in patent EP0046337A2, “Triazole compounds, a process for preparing them, their use as plant and pharmaceutical fungicides and as plant growth regulators and compositions containing them” (IMPERIAL CHEMICAL INDUSTRIES PLC, priority 1980, dated 1982).

Tests used:
Format in all cases: in vivo
[1] = tested on: PUCCINIA RECONDITA (WHEAT); assay: Foliar fungal disease test on plants: Puccinia recondita on wheat; settings: 100 ppm active ingredient spray and root drench approximately 40 ppm a.i./dry soil, one or two days before inoculation, assessed four to fourteen days after inoculation
Protocol: (§1) The compounds were tested against a variety of foliar fungal diseases of plants. The technique employed was as follows. The plants were grown in John Innes Potting Compost (No 1 or 2) in 4 cm diameter minipots. A layer of fine sand was placed at the bottom of the pots containing the dicotyledonous plants to facilitate uptake of test compound by the roots. The test compounds were formulated either by bead milling with aqueous Dispersol T or as a solution in acetone or acetone/ethanol which was diluted to the required concentration immediately before use. For the foliage diseases, suspensions (100 ppm active ingredient) were sprayed […]. Exceptions to this were the tests on Botrytis cinerea and Venturia inaequalis. The sprays were applied to maximum retention and the root drenches to a final concentration equivalent to approximately 40 ppm a.i./dry soil. Tween 20, to give a final concentration of 0.05%, was added when the sprays were applied to cereals. For most of the tests the compound was applied to the soil (roots) and to the foliage (by spraying) one or two days before the plant was inoculated with the diseases. An exception was the test on Erysiphe graminis in which the plants were inoculated 24 hours before treatment. After inoculation, the plants were put into an appropriate environment to allow infection to take place and then incubated until the disease was ready for assessment. The period between inoculation and assessment varied from four to fourteen days according to the disease and environment. The disease control was recorded by the following grading:- • 4 = no disease • 3 = trace - 5% of disease on untreated plants • 2 = 6-25% of disease on untreated plants • 1 = 26-59% of disease on untreated plants • 0 = 60-100% of disease on untreated plants

BOTRYTIS CINEREA (GRAPE) = assay: Foliar fungal disease test on plants: Botrytis cinerea on grape; settings: 100 ppm active ingredient, named as an exception to the usual way of application, treatment one or two days before inoculation
Protocol: as §1, with “For most of the tests the compound was applied to the soil (roots) and to the foliage (by spraying) one or two days before the plant was inoculated with the diseases. An exception was the test on Erysiphe graminis in which the plants were inoculated 24 hours before treatment.” left out, “The period between inoculation and assessment varied from four to fourteen days according to the disease and environment.” left out

[2] = tested on: VENTURIA INEQUALIS (APPLE); assay: Foliar fungal disease test on plants: Venturia inaequalis on apple; settings: 100 ppm active ingredient, named as an exception to the usual way of application, treatment one or two days before inoculation
Protocol: as §1

[3] = tested on: CERCOSPORA ARACHIDICOLA (PEANUT); assay: Foliar fungal disease test on plants: Cercospora arachidicola on peanut; settings: 100 ppm active ingredient spray and root drench approximately 40 ppm a.i./dry soil, one or two days before inoculation
Protocol: as §1

[4] = tested on: ERYSIPHE GRAMINIS (BARLEY); assay: Foliar fungal disease test on plants: Erysiphe graminis on barley; settings: 100 ppm active ingredient spray and root drench approximately 40 ppm a.i./dry soil, plants inoculated 24 hours before treatment
Protocol: as §1

Structure (SMILES)	disease control grading, PUCCINIA RECONDITA (WHEAT) [1]	disease control grading, BOTRYTIS CINEREA (GRAPE) (BOTRYTIS CINEREA (GRAPE))	disease control grading, VENTURIA INEQUALIS (APPLE) [2]	disease control grading, CERCOSPORA ARACHIDICOLA (PEANUT) [3]	disease control grading, ERYSIPHE GRAMINIS (BARLEY) [4]
OC(Cn1cncn1)(c1ccccc1)c1cccs1 (centres unmarked) [Compound 1A, 1-(1,2,4-Triazol-1-yl)-2-phenyl-2-(2-thienyl)ethan-2-ol]	3 (3 = trace - 5% of disease on untreated plants)	0 (0 = 60-100% of disease on untreated plants)	0 (0 = 60-100% of disease on untreated plants)	0 (0 = 60-100% of disease on untreated plants)	4 (4 = no disease)
OC(Cn1cncn1)(c1ccc(Cl)s1)c1ccc(Cl)cc1Cl (stereo not drawn) [Compound 11A, 1-(1,2,4-Triazol-l-yl)-2-(2,4-dichloroplienyl)-2-(5-chlorothien-2-yl) ethan-2-ol]	4 (4 = no disease)		4 (4 = no disease)	3 (3 = trace - 5% of disease on untreated plants)	4 (4 = no disease)
OC(Cn1cnnc1)(c1ccc(Cl)s1)c1ccc(Cl)cc1Cl (centres unmarked) [Compound 11B, 1-(1,2,4-Triazol-4-yl)-2-(2,4-dichlorophenyl)-2-(5-chloro-thlen-2-yl) ethan-2-ol]	4 (4 = no disease)	0 (0 = 60-100% of disease on untreated plants)	1 (1 = 26-59% of disease on untreated plants)	1 (1 = 26-59% of disease on untreated plants)	4 (4 = no disease)
